Measurements as given in patent US20120142723A1, “ACE2 ACTIVATOR COMPOUNDS AND METHODS OF USE THEREOF” (University of Florida Research Foundation, Inc., priority 2006, published 2012).
“Also recorded” adds a separate entry of the source. Like-named read-outs stand apart in the source and are kept apart here.

What was measured:
human recombinant ACE2 = molecular target: T1, human recombinant ACE2 (Homo sapiens, UniProt Q9BYF1); experiment: ACE2 activity assay with fluorogenic peptide VI; assay type: biochemical
T1 construct: purchased R&D Systems, Minneapolis, Minn; 933-ZN-10
T1 sequence (Q9BYF1 18-740 limits assumed): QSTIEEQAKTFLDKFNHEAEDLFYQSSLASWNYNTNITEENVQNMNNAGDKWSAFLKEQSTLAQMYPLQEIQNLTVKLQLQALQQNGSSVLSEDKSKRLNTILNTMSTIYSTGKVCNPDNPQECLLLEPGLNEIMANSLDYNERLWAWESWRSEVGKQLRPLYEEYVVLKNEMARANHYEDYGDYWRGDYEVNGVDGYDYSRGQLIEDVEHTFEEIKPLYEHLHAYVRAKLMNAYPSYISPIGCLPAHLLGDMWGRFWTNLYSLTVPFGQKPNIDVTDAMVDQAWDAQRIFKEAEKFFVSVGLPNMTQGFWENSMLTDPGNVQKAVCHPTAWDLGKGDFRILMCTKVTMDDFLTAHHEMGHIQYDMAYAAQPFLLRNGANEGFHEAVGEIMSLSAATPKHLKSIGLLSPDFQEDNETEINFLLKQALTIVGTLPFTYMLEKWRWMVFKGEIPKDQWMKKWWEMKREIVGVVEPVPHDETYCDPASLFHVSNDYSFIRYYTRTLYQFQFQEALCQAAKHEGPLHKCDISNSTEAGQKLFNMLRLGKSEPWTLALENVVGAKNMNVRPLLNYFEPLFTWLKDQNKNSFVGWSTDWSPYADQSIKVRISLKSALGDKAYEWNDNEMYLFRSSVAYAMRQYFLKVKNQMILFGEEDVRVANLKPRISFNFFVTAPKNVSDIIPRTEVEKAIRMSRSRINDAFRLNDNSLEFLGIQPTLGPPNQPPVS
Description: (§1) Activity of ACE and ACE2 was measured with a Spectra Max Gemini EM Florescence Reader (Molecular Devices). The enzyme removes the c-terminal dinitrophenyl moiety that quenches the inherent fluorescence of its 7-methoxycoumain group, resulting in an increase in fluorescence in the presence of enzyme activity. Fluorescence was measured with excitation and emission spectra of 328 nm and 392 nm, respectively. Reaction mixtures were prepared in 100 μl volumes and different concentrations of compound were tested against 10 μM substrate. 10 nM enzyme in 100 mM NaCl, 75 mM Iris, 0.5 μM ZnCl2, at pH 7.4. Samples were read every 15-20 seconds for at least 30 minutes immediately after the addition of fluorogenic peptide substrate at 37° C. Assays, including controls, were performed in the presence of 1% dimethyl sulfoxide (DMSO). Although higher concentrations of NaCl increase the activity of ACE2 and ACE (Vickers et al. 2002), a low concentration of salt (100 mM NaCl) was used in the assays to allow for enhancement of enzymatic activity to be detectable. That is, using 1 M NaCl which gives a maximal enhancing effect from the Cl ions might not allow the compounds to further enhance the activity of the enzyme. The lower salt concentration should give the compounds available room for activation.
Controls in the presence and absence of DMSO and without compound were carried out to evaluate the effect of DMSO on the activity of ACE and ACE2. Assays with no DMSO, 1% DMSO, and 2% DMSO were performed in identical conditions (i.e, pH, temperature, salt concentration, reaction mix volume and so on) to those of the experimental assays.
The experimental assays were corrected at each concentration since higher or lower concentrations of compounds affected the background signal in a concentration dependent manner.
Human recombinant ACE and ACE2 were obtained from R&D systems, Minneapolis, Minn., along with their respective fluorogenic substrates (ACE, catalog ID: 929-ZN-10; ACE2, 933-ZN-10; ACE substrate, fluorogenic peptide V, Mca RPPGFSAFK(Dnp)-OH, catalog ID: ES005; ACE2 substrate, fluorogenic peptide VI, Mca-YVADAPK(Dnp)-OH, ES007). Enzymatic activity was measured with a Spectra Max Gemini EM Fluorescence Reader (Molecular Devices) (Huentelman et al., Regul. Pept. 122:61-67 (2004)). Compounds were tested against 50 μM substrate. All assays were performed at least in triplicate in a reaction mixture containing 10 nM enzyme, 1 M NaCl, 75 mM Tris-HCl, 1% DMSO and 0.5 μM ZnCl2, at pH 7.4. Samples were read every 15-30 seconds for at least 30 minutes immediately after the addition of fluorogenic peptide substrates at 37° C. […] Enzyme activity was corrected for background.

Human recombinant ACE = molecular target: T2, Human recombinant ACE (Homo sapiens, UniProt P12821); experiment: ACE activity assay with fluorogenic peptide V; assay type: biochemical
T2 construct: purchased R&D Systems, Minneapolis, Minn; 929-ZN-10
T2 sequence (P12821 30-1261 limits assumed): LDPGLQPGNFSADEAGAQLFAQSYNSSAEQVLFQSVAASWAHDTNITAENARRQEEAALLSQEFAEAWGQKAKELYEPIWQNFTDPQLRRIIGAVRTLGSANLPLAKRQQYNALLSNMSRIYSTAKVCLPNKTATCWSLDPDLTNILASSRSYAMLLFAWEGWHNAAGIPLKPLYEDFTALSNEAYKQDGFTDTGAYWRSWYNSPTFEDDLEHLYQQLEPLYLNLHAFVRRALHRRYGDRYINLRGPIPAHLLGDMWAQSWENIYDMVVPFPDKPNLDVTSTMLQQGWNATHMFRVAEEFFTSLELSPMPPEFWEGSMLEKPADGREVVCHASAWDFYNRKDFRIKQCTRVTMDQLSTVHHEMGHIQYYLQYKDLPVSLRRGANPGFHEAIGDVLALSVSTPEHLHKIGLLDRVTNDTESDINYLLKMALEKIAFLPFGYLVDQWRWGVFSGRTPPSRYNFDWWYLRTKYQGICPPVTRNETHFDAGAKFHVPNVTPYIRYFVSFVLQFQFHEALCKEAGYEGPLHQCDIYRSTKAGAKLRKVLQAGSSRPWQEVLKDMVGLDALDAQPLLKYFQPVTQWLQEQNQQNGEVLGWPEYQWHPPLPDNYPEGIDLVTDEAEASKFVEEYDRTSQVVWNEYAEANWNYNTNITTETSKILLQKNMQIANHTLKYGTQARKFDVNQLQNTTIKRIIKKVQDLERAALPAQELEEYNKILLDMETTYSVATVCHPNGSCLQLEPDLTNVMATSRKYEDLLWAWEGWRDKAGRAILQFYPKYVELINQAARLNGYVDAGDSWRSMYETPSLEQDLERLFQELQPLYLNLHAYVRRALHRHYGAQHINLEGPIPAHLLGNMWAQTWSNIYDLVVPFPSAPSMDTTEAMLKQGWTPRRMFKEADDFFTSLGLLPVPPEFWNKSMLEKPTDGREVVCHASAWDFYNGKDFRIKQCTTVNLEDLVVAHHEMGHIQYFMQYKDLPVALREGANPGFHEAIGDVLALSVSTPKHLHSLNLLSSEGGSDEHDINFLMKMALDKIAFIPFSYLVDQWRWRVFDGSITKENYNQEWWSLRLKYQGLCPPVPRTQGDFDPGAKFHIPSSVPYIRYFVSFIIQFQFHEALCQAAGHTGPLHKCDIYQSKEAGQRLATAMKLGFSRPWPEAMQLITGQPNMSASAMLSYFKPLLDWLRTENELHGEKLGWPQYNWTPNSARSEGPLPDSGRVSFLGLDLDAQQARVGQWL
Description: as §1
Controls in the presence and absence of DMSO and without compound were carried out to evaluate the effect of DMSO on the activity of ACE and ACE2. […]
Human recombinant ACE and ACE2 were obtained from R&D systems, Minneapolis, Minn., along with their respective fluorogenic substrates (ACE, catalog ID: 929-ZN-10; ACE2, 933-ZN-10; ACE substrate, fluorogenic peptide V, Mca RPPGFSAFK(Dnp)-OH, catalog ID: ES005; ACE2 substrate, fluorogenic peptide VI, Mca-YVADAPK(Dnp)-OH, ES007). Enzymatic activity was measured with a Spectra Max Gemini EM Fluorescence Reader (Molecular Devices) (Huentelman et al., Regul. Pept. 122:61-67 (2004)). […] Samples were read every 15-30 seconds for at least 30 minutes immediately after the addition of fluorogenic peptide substrates at 37° C. […]

[1] = Solubility as observed during assays and formulation; assay type: physicochemical
Source text: Recombinant ACE and ACE2 were obtained in purified form from R&D Systems, Minneapolis, Minn. (catalog ID: 929-ZN-10 and 933-ZN-10, respectively). Substrates for ACE (fluorogenic peptide V, Mca-RPPGFSAFK(Dnp)-OH, catalog ID: ES005), and for ACE2 (fluorogenic peptide VI, Mca-YVADAPK(Dnp)-OH, catalog ID: ES007) were also obtained from R&D systems. Top scoring molecules were obtained from the National Cancer Institute (NCI) for functional testing. Dry compounds were resuspended in 100% DMSO to prepare 100 mM stock solutions, according to the amount of compound provided by the NCI and its molecular weight. Gentle heating to 60-80 C was carried out to assist their solubilization. Some compounds were further diluted to 50 mM stocks if clearly difficult to dissolve.
XNT was dissolved in saline at low pH (2-2.5) for in vivo studies. This compound was consistently prepared 24-48 hours before delivery in animals. XNT was prepared on a gram scale in six synthetic steps from 5-methoxysalicylic acid and m-chloroiodobenzene through modifications of a published procedure (Archer et al., J. Med. Chem. 26:1240-1246 (1983); Archer et al., J. Med. Chem. 31:254-260 (1988).

[2] = listed as resorcinolnaphthalein

- ACE2 activity, dose response (human recombinant ACE2): did not show the same dose response
- ACE2 activity (human recombinant ACE2; 100 μM compound): ACE2-specific enhancement
- increase of ACE2 activity (human recombinant ACE2; 100 μM compound, FIG. 3, 40 minute time course): about 2 fold
- ACE2 activity (human recombinant ACE2; 500 μM compound): returned down to control level
- ACE2 activity (human recombinant ACE2; concentrations higher than 100 μM): inhibited ACE2
- enhancement of ACE2 enzymatic activity (human recombinant ACE2; confirmation assay, 1% DMSO): 2 fold
- increase of ACE2 activity (human recombinant ACE2; initial functional screening): about 2 fold
- ACE2 activity, dose response (human recombinant ACE2; [2]): dose-dependent manner
- ACE activity (Human recombinant ACE): do not enhance ACE activity
- ACE activity (Human recombinant ACE; [2]): did not significantly affect
- solubility [1]: significantly more insoluble
Compound: O=C1OC2(c3ccc(O)cc3Oc3cc(O)ccc32)c2cccc3cccc1c23 [Compound 6, resorcinalnaphthalein]
- ACE2 activity (human recombinant ACE2; 20, 50 and 100 μM compound): activated ACE2 identically; also recorded: identical curves
- ACE activity (Human recombinant ACE; 50 or 100 μM compound): did not activate; also recorded: not enhanced
